Our source for the IC50 values is patent publication US20080306107A1, “Compounds” (AstraZeneca AB, priority 2004, published 2008).

Broadly, the pIC50 is the negative decadic logarithm of the IC50, by convention in mol/L.

pIC50: −log10 of the molar value.

In this assay the target is T1, hVR1 (Homo sapiens, UniProt Q8NER1).
T1 construct: expressed in transfected cells
Description: hVR1 FLIPR (Fluorometric Image Plate Reader) screening assay, IC50 determination. Type of assay: cell-based. Conditions: transfected CHO cells stably expressing hVR1; Fluo-4 calcium fluorescence; agonist 50 nM capsaicin or MES buffer pH 5.2. Here is the method: 1. hVR1 FLIPR (Fluorometric Image Plate Reader) Screening Assay
Transfected CHO cells, stably expressing hVR1 (15,000 cells/well) are seeded in 50 ul media in a black clear bottom 384 plate (Greiner) and grown in a humidified incubator (37° C., 2% CO2), 24-30 hours prior to experiment.
Subsequently, the media is removed from the cell plate by inversion and 2 μM Fluo-4 is added using a multidrop (Labsystems). Following the 40 minutes dye incubation in the dark at 37° C. and 2% CO2, the extracellular dye present is washed away using an EMBLA (Scatron), leaving the cells in 40 ul of assay buffer (1×HBSS, 10 mM D-Glucose, 1 mM CaCl2, 10 mM HEPES, 10×7.5% NaHCO3 and 2.5 mM Probenecid).
FLIPR Assay —IC50 Determination Protocol
For IC50 determinations the fluorescence is read using FLIPR filter 1 (em […]). A cellular baseline recording is taken for 30 seconds, followed by a 20 μl addition of 10, titrated half-log concentrations of the test compound, yielding cellular concentration ranging from 3 μM to 0.1 nM. […] This consequently leading to a reduction in fluorescence signal and providing a reduced fluorescence reading, compared with no compound, buffer controls. Data is exported by the FLIPR program as a sum of fluorescence calculated under the curve upon the addition of capsaicin. […]

T1 sequence (Q8NER1 whole entry): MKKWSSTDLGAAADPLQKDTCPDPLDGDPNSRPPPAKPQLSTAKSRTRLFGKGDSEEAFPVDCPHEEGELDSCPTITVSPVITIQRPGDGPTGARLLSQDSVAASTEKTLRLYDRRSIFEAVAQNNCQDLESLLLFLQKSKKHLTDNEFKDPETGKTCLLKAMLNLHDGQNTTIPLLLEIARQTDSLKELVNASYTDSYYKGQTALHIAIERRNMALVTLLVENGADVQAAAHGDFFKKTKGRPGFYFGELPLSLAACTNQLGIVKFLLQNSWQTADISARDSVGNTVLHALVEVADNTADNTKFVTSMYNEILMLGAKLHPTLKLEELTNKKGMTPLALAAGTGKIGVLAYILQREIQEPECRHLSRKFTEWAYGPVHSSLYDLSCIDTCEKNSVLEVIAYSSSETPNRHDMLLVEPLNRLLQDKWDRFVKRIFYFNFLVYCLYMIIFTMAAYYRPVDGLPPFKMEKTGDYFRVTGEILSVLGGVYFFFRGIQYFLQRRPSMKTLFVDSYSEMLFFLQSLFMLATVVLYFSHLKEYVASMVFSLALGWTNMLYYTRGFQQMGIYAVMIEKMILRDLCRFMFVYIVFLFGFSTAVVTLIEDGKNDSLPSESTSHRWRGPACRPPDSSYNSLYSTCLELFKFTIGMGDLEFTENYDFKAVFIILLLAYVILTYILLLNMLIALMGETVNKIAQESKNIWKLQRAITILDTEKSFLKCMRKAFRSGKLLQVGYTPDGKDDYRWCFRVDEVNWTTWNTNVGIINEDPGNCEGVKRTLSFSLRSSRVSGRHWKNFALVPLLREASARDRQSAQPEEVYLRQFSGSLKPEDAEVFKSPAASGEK

For the compound `Cc1cc(C(F)(F)F)c2c(N)c(C(=O)NCCc3ccccc3C)sc2n1` [Compound 3, 3-amino-6-methyl-N-[2-(2-methylphenyl)ethyl]-4-(trifluoromethyl)thieno[2,3-b]pyridine-2-carboxamide], the pIC50 is 6.92.
Next, `Cc1cc(C(F)(F)F)c2c(N)c(C(=O)NCCc3ccccc3)sc2n1` [Compound 11, 3-amino-6-methyl-N-(2-phenylethyl)-4-(trifluoromethyl)thieno[2,3-b]pyridine-2-carboxamide]: 6.15.
